Measured values from patent publication US11931339B2, “Compositions and methods for treating tissue injury” (CASE WESTERN RESERVE UNIVERSITY, priority 2018, dated 2024).

Key:
[1] = tested on: Myc-PKM2-WT and Myc-PKM2-C423/424A expressing HEK cells; assay: 6-phosphogluconate accumulation in PKM2-expressing HEK cells after NO treatment; format: cell-based; settings: DETANO 500 μM, FIG. 11d
Description: (§1) HEK cell transfection was described herein. siRNA-mediated protein depletion was used in HEK cells. Two custom PKM2 siRNAs that target the 3′ UTR of PKM2 were obtained from Dharmacon. siRNA oligonucleotides (60 pmol/10 cm plate) were transfected into HEK cells using Lipofectamine RNAiMAX (Invitrogen) according to the manufacturer's protocol. After 24 hours, 5 μg pCMV-control, pCMV-PKM2-WT or pCMV-PKM2-C423A/424A were co-transfected with siRNA oligonucleotides (60 pmol/10 cm plate) into HEK cells using Lipofectamine 2000. After 24 hrs, cells were treated with 500 μM DETA-NO for 20 hr. Cells were then collected for assay.
(§2) The amount of pyruvate was measured using Pyruvate Assay Kit (Sigma). Kidneys harvested from SCoR^+/+, SCoR^−/−, PKM2^+/+ or PKM2^−/− mice (sham operation or AKI) were mechanically homogenized in Pyruvate Assay Buffer (1 mg/5 μl buffer). After extracts were clarified by centrifugation (20,000 g, 4° C., 20 min, ×2), supernatant was used for assay. GHB in the serum of SCoR^+/+ and SCoR^−/− mice was measured following the GHB enzymatic assay kit from BUHLMANN. […] The amount of PEP, 6PG, ATP, ADP and serine were respectively measured using PEP Colorimetric/Fluorometric Assay Kit (Sigma), 6 phosphogluconate Assay kit (abeam), ATP Colorimetric/Fluorometric Assay Kit (Sigma), ADP Colorimetric/Fluorometric Assay Kit (Sigma) and DL-Serine Assay kit (Fluorometric) (Biovision).

[2] = tested on: Myc-PKM2-WT and Myc-PKM2-C423/424A HEK cells; assay: ADP/ATP ratio in PKM2-expressing HEK cells under NO treatment; format: cell-based; settings: HEK cells under NO treatment (DETANO 500 μM); FIG. 12
Description: as §1, §2

[3] = target: T1, PKM2-C423/424A in HEK cells (Homo sapiens, UniProt P14618, C423A/C424A); assay: Activity of Myc-PKM2-C423/424A after NO (DETA-NO) treatment in HEK cells; format: cell-based; settings: 500 μM DETA-NO for 20 hr; FIG. 11b
T1 construct: host or cells: HEK cells (endogenous PKM2 depleted by siRNA against the 3' UTR)
Description: as §1
PKM activity was measured based on generation of pyruvate, which was oxidized by pyruvate oxidase to produce color (k=570 nm). To measure PKM2 activity in vitro, 250 ng recombinant PKM2-WT and PKM2-C423A/424A proteins were pre-incubated with substrate 2 μl fructose-1,6-bisphosphate (FBP)(250 μM) in 2 ml dialysis buffer [20 mM Tris-HCL (pH 7.9), 20% (v/v) glycerol, 0.1 M KCL, 0.2 mM EDTA], followed by dialysis to remove the free FBP in 2 L dialysis buffer. After 10 ng PKM2-FBP complex was treated with 200-300 μM SNO-CoA for 10 min at room temperature, the activity of PKM2 was measured. […] Extracts were clarified by centrifugation (20,000 g, 4° C., 20 min, ×2), and protein concentration was determined by bicinchoninic acid assay. […]

[4] = tested on: Myc-PKM2-WT and Myc-PKM2-C423/424A expressing HEK cells; assay: PEP accumulation in PKM2-expressing HEK cells after NO treatment; format: cell-based; settings: HEK cells with endogenous PKM2 knocked down; 500 μM DETANO; FIG. 3h
Description: as §1, §2

recombinant PKM1 = recombinant PKM1 (Homo sapiens, UniProt P14618); assay: Activity of recombinant PKM1 after SNO-CoA treatment; format: biochemical; settings: FIG. 8
recombinant PKLR = recombinant PKLR (Homo sapiens, UniProt P30613); assay: Activity of recombinant PKLR after SNO-CoA treatment; format: biochemical; settings: FIG. 8
[5] = target: T2, recombinant PKM2-C423/424A (Homo sapiens, UniProt P14618, C423A/C424A); assay: Activity of recombinant PKM2-C423/424A after SNO-CoA treatment; format: biochemical; settings: in vitro, 200-300 μM SNO-CoA for 10 min; FIG. 3f
T2 construct: 6xHis (C); made in house; host or cells: E. coli BL21-CodonPlus
Excerpt: The mammalian cell expression plasmid pCMV-PKM2 was obtained from Origene. Mammalian cell expression plasmid pcDNA-SCoR was constructed by PCR-cloning. pCMV-PKM2 cysteine mutants were generated by QuikChange II Site-Directed Mutagenesis Kit (Agilent). For purification of recombinant PKM2, cDNA encoding PKM2-WT or PKM2-C423A/424A were cloned into pET21b (Novagen) to introduce a C-terminal 6×His tag on the expressed protein. The recombinant PKM2 proteins were purified from BL21-CodonPlus Competent E. coli Cells (Agilent). Overnight E. coli cultures were sub-cultured into 1 L of LB medium at 5%. At OD600 of 0.5, cultures were induced with […] IPTG and grown for a further 4 hr at 28° C. Cultures were centrifuged at 4000 g for 10 min to harvest the cells. Cell pellets from 1 L cultures were lysed in 10 mL of 1×PBS buffer containing 1 mM PMSF and protease-inhibitor cocktail by sonication. After centrifugation at 14500 g for 20 min, the supernatant was collected. […]
PKM activity was measured based on generation of pyruvate, which was oxidized by pyruvate oxidase to produce color (k=570 nm). […] After 10 ng PKM2-FBP complex was treated with 200-300 μM SNO-CoA for 10 min at room temperature, the activity of PKM2 was measured. […] Extracts were clarified by centrifugation (20,000 g, 4° C., 20 min, ×2), and protein concentration was determined by bicinchoninic acid assay. […]

recombinant PKM2 = target: T3, recombinant PKM2 (Homo sapiens, UniProt P14618); assay: PKM activity of recombinant PKM2 after SNO-CoA treatment; format: biochemical; settings: PKM2-FBP complex, 200-300 μM SNO-CoA for 10 min at room temperature; FIG. 3d
T3 construct: 6xHis (C); made in house; host or cells: E. coli BL21-CodonPlus
Description: PKM activity was measured based on generation of pyruvate, which was oxidized by pyruvate oxidase to produce color (k=570 nm). To measure PKM2 activity in vitro, 250 ng recombinant PKM2-WT and PKM2-C423A/424A proteins were pre-incubated with substrate 2 μl fructose-1,6-bisphosphate (FBP)(250 μM) in 2 ml dialysis buffer [20 mM Tris-HCL (pH 7.9), 20% (v/v) glycerol, 0.1 M KCL, 0.2 mM EDTA], followed by dialysis to remove the free FBP in 2 L dialysis buffer. After 10 ng PKM2-FBP complex was treated with 200-300 μM SNO-CoA for 10 min at room temperature, the activity of PKM2 was measured. To measure PKM2 activity in kidney, kidneys were mechanically homogenized in lysis buffer [50 mM phosphate buffer, pH 7.0, 150 mM NaCl, 0.1 mM EDTA, 0.1 mM DTPA, 1 mM PMSF, and protease inhibitor mixture (Roche)]. Extracts were clarified by centrifugation (20,000 g, 4° C., 20 min, ×2), and protein concentration was determined by bicinchoninic acid assay. 10 μl (0.1 μg/μl) lysate was used to measure PKM2 activity. Assay of PKM2 activity was followed the protocol of Pyruvate Kinase Activity Colorimetric/Fluorometric Assay Kit from Biovison In.

tetrameric PKM2-WT = target: T4, tetrameric PKM2-WT (Homo sapiens, UniProt P14618); assay: PKM2 dimer and tetramer formation in vitro, PKM2-WT; format: biochemical; settings: purified proteins, 200-300 μM SNO-CoA for 10 min; FIG. 3g
T4 construct: 6xHis (C); made in house; host or cells: E. coli BL21-CodonPlus
Description: Assay of PKM2 dimer and tetramer in vitro follows previous descriptions. In brief, after 40 ng PKM2-FBP complex was treated with 200-300 μM SNO-CoA for 10 min at room temperature, 5 μl fresh glutaraldehyde (50%) was added to a reaction mixture containing 100 mM HEPES (pH 7.5) for 5 min at 37° C. The cross-linking reaction was terminated by addition of 5 μl 1M Tris-HCL (PH 8.0). Assay of PKM2 dimer and tetramer in situ was carried out as described previously. DSS (disuccinimidyl suberate; Thermo Scientific) (final 500 μM) was added to cells for 30 min at room temperature to cross-link proteins. Cells were lysed in RIPA Buffer and protein concentration was determined by bicinchoninic acid assay. Equal amounts of protein were separated by 4-15% Criterion™ Precast Midi Protein Gel and monomer, dimer and tetramer forms of PKM2 were detected with PKM2 antibody.

SCoR−/− mice = assay: Ascorbate-supplemented chow in SCoR−/− mice: ascorbate levels and I/R-induced AKI; format: in vivo; settings: chow with 1% ascorbate for six weeks, FIGS. 7b-c
Description: AKI surgery was carried out as described herein. Mice of similar age (9-11 weeks) and body weight (male: 25-28 g; female: 22-25 g) were used for surgery. The mice were anesthetized with isoflurane (1-3%) in oxygen and then anesthesia was maintained with isoflurane (0.75-2.0%) and adjusted as needed. The fur in the surgical area was removed with clippers and the skin sterilized with 3 times alternating washes of betadine […] and alcohol. The mouse was placed on a thermostatic station during surgery. The skin and muscle were cut open along the back to expose both right and left kidneys. Gentle blunt dissection was performed through muscular layers to reveal the kidney and a Q-tip was used to mobilize and exteriorize the kidney. A 5-0 silk suture was used to clamp the pedicle to block the blood flow to the kidney to induce renal ischemia for 23 min in male mice or 50 min in female mice, then the sutures released to allow reperfusion. The identical steps were performed on the contra-lateral side. A silk suture was used to close the muscle layer of the incision followed by the closure of the skin wound with vicryl. […] Seram creatinine and BUN were determined after 24 hrs of reperfusion upon removal of the kidney (when larger volumes of blood can be collected). Seram creatinine and BUN were measured at University Hospital's Clinical Laboratories.

T1 sequence (P14618 2-531 C423A/C424A): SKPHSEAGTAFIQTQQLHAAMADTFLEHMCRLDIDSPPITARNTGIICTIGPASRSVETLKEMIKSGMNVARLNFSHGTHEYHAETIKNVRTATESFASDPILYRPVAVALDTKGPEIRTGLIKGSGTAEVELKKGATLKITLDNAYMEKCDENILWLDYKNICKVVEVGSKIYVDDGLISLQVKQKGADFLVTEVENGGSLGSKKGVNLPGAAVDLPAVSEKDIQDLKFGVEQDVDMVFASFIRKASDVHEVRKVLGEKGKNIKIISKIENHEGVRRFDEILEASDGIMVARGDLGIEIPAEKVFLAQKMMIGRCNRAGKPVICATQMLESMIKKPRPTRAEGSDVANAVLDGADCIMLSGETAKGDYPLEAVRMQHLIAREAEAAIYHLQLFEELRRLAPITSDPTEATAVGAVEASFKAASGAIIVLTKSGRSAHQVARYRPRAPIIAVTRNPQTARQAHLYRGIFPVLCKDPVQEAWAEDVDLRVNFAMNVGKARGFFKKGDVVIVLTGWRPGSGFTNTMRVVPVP
T2 sequence (P14618 2-531 C423A/C424A): as above
recombinant PKM1, sequence (P14618 1-531 isoform P14618-2, species assumed): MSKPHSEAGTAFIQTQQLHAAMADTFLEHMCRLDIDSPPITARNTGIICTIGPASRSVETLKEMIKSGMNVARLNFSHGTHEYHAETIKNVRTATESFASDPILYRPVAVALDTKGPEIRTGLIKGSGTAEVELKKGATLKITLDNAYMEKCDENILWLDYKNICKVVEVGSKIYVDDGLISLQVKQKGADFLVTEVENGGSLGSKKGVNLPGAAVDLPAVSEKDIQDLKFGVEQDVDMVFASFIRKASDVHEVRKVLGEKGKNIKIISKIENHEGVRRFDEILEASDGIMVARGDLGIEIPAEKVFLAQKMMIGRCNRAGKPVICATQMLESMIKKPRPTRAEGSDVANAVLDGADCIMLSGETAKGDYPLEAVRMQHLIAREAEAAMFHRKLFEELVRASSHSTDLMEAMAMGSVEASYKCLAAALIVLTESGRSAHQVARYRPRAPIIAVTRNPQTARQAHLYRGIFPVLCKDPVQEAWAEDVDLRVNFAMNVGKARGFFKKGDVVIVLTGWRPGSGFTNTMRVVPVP
recombinant PKLR, sequence (P30613 whole entry, species assumed): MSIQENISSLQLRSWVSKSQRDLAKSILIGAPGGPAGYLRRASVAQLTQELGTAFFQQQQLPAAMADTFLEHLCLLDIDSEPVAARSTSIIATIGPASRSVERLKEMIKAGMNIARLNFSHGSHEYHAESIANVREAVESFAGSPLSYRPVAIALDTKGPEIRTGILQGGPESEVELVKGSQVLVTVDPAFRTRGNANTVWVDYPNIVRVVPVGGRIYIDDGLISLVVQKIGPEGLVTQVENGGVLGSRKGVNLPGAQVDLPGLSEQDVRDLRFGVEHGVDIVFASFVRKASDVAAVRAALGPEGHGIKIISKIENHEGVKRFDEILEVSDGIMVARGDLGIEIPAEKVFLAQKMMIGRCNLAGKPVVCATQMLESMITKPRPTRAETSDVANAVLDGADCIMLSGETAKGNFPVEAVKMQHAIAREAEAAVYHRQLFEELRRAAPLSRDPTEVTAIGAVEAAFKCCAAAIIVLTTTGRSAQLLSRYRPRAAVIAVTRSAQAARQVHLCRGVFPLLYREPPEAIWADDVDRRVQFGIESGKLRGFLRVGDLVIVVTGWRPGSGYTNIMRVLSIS
T4 sequence (P14618 whole entry, species assumed): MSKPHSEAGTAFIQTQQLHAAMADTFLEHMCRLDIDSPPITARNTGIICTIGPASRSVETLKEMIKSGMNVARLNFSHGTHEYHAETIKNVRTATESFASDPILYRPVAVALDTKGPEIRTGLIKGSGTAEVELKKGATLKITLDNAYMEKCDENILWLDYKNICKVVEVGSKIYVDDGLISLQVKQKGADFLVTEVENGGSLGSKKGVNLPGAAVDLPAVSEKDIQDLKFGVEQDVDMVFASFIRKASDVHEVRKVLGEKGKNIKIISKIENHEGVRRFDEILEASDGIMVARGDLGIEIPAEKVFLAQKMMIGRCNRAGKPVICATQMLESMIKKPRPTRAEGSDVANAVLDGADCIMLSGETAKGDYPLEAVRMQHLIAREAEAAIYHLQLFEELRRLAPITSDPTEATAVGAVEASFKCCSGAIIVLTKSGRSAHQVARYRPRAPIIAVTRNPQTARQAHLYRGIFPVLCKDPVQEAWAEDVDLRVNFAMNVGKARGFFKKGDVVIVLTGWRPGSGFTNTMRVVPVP
T3 sequence (P14618 whole entry, species assumed): as above

## NCCN(CCN)/[N+]([O-])=N/O [DETA-NO]
[1]
  accumulation of 6-phosphogluconate in Myc-PKM2-WT vs. Myc-PKM2-C423/424A cells: promotes accumulation of 6-phosphogluconate
[2]
  ADP/ATP ratio between Myc-PKM2-WT and Myc-PKM2-C423/424A cells: no different
[3]
  activity of PKM2-C423/424A in HEK cells: cannot be inhibited
[4]
  accumulation of PEP in Myc-PKM2-C423/424A cells: not Myc-PKM2-C423/424A cells
  accumulation of PEP in Myc-PKM2-WT cells: promoted the accumulation of PEP

## CC(C)(COP(=O)(O)OP(=O)(O)OC[C@H]1O[C@@H](n2cnc3c(N)ncnc32)[C@H](O)[C@@H]1OP(=O)(O)O)[C@@H](O)C(=O)NCCC(=O)NCCSN=O [SNO-CoA, S-nitroso-CoA]
Recombinant PKM1
  activity of recombinant PKM1 after SNO-CoA treatment: not other PK isoforms (PKM1 or PKLR), was directly inhibited
Recombinant PKLR
  activity of recombinant PKLR after SNO-CoA treatment: not other PK isoforms (PKM1 or PKLR), was directly inhibited
[5]
  activity of PKM2-C423/424A after SNO-CoA treatment: cannot be inhibited
Recombinant PKM2
  activity of recombinant PKM2 after SNO-CoA treatment: directly inhibited
Tetrameric PKM2-WT
  formation of tetrameric PKM2-WT: inhibited formation of tetrameric PKM2-WT

## O=C1O[C@H]([C@@H](O)CO)C(O)=C1O [ascorbate, ascorbic acid]
SCoR−/− mice
  AKI phenotype (serum creatinine and BUN): no effect on the AKI phenotype
